Assay results reported in ChEMBL document CHEMBL5678803, “Selective blockade of TRPA1 channel attenuates pathological pain without altering noxious cold sensation or body temperature regulation” (Pain, 2011).
Active and inactive are the calls of the source. No cut-off for these calls is given here.

Key:
[1] = molecular target: T1, Transient receptor potential cation channel subfamily V member 2 (Rattus norvegicus, UniProt Q9WUD2); experiment: Antagonist activity at rat TRPV2 expressed in HEK293F cells assessed as inhibition of 2APB-induced increase in intracellular Ca2+ level by FLIPR-based Ca2+ assay; assay type: cell-based
T1 sequence (Q9WUD2 whole entry): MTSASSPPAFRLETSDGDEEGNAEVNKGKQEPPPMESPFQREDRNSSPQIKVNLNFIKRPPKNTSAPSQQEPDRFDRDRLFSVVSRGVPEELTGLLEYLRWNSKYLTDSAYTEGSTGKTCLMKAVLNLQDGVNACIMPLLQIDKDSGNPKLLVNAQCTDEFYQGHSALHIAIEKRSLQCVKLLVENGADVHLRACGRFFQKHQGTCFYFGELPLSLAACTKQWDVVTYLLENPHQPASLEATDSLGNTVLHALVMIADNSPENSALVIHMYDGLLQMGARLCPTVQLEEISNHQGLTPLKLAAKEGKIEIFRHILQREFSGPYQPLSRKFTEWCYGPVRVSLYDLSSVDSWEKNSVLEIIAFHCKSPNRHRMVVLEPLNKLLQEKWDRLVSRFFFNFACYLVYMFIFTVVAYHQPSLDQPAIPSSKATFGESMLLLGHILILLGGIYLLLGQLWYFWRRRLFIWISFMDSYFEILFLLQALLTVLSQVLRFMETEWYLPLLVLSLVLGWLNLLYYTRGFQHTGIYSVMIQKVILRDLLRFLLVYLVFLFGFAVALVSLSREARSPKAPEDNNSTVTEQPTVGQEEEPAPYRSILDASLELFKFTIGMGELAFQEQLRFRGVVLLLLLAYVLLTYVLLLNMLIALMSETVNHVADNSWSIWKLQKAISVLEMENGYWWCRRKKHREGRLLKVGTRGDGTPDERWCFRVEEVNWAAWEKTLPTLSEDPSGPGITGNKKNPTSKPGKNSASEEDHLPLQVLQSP

[2] = molecular target: Transient receptor potential cation channel subfamily V member 1 (Homo sapiens, UniProt Q8NER1); experiment: Antagonist activity at human TRPV1 expressed in HEK293F cells assessed as inhibition of capsaicin-induced TRPV1 channel activation by FLIPR-based Ca2+ assay relative to control; assay type: cell-based; details: concentration not given here
Transient receptor potential cation channel subfamily V member 1, sequence (Q8NER1 whole entry): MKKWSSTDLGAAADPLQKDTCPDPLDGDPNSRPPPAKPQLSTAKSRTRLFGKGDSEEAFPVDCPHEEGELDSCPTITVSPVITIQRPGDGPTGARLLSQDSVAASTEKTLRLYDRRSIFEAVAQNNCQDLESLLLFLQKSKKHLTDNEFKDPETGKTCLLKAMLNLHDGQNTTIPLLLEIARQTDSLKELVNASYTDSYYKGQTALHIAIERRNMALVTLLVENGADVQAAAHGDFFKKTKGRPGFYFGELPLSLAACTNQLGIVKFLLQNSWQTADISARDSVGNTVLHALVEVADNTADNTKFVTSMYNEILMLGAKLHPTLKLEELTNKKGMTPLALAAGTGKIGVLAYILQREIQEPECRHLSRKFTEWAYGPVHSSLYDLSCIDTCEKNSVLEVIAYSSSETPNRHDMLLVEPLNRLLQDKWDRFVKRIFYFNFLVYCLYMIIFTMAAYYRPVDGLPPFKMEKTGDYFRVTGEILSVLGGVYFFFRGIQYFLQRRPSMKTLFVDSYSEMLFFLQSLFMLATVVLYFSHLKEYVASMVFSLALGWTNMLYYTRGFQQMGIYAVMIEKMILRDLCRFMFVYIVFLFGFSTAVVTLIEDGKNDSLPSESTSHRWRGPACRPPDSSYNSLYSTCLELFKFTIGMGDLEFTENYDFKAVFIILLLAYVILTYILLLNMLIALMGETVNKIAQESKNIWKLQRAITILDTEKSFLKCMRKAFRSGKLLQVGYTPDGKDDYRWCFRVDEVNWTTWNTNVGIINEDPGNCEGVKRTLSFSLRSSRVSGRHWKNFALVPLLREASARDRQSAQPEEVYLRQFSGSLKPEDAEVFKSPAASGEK

[3] = molecular target: Transient receptor potential cation channel subfamily A member 1 (Rattus norvegicus) (UniProt Q6RI86); experiment: Antagonist activity at endogenous TRPA1 in rat DRG neurons assessed as blockade of AITC-induced CGRP release at 5 micromol/L; assay type: cell-based; details: DRG neuron, filed as antagonist, dose 5.0 µmol/L
Transient receptor potential cation channel subfamily A member 1 (Rattus norvegicus), sequence (Q6RI86 whole entry): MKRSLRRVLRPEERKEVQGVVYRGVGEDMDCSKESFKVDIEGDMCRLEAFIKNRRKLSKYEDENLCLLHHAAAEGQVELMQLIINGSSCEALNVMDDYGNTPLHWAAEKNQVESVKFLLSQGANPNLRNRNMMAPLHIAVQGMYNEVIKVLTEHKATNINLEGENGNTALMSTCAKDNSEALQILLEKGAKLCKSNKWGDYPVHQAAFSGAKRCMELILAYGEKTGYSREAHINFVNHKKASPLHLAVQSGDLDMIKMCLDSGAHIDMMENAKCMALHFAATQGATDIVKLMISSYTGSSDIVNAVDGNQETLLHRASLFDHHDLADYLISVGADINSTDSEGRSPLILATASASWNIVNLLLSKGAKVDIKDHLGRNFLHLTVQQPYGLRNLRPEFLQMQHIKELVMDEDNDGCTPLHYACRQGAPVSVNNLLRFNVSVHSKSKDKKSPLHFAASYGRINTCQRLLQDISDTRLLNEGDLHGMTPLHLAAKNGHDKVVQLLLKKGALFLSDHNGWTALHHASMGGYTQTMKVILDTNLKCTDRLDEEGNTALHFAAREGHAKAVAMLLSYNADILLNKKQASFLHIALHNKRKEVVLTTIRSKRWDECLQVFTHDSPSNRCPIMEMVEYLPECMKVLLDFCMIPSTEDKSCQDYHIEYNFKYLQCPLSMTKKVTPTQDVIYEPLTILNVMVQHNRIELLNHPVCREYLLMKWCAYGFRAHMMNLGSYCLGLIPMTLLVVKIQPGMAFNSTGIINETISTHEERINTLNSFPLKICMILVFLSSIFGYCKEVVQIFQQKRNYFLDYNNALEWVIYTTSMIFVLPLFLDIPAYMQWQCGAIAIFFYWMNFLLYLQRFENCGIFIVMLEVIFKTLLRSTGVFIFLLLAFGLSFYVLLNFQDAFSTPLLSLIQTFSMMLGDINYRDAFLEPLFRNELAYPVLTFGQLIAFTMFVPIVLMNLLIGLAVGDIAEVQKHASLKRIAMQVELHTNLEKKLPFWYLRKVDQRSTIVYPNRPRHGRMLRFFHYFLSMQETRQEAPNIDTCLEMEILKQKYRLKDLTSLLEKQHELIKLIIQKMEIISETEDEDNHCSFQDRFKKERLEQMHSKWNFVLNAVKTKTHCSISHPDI

[4] = molecular target: Transient receptor potential cation channel subfamily A member 1 (Rattus norvegicus) (UniProt Q6RI86); experiment: Antagonist activity at endogenous TRPA1 in rat DRG neurons assessed as blockade of capsaicin-induced CGRP release at 50 micromol/L; assay type: cell-based; details: DRG neuron, dose 50.0 µmol/L
[5] = Unbound drug concentration in rat at 62.1 mg/kg, po measured after 60 mins; assay type: ADME, organism-based; details: in vivo, 1 h
[6] = test system: Rattus norvegicus; experiment: Analgesic activity in MIA-induced osteoarthritic pain Sprague-Dawley rat model assessed as reversal of MIA-induced hind limb grip force deficit preadministered with MIA for 3 weeks followed by oral administration of compound for 1 hrs; assay type: functional; details: dose 6.2-62.1 mg/kg
[7] = molecular target: Transient receptor potential cation channel subfamily A member 1 (Mus musculus, UniProt Q8BLA8); experiment: Antagonist activity at mouse TRPA1 expressed in HEK293F cells assessed as reduction in AITC-induced increase in intracellular Ca2+ level by FLIPR-based Ca2+ assay; assay type: cell-based
Transient receptor potential cation channel subfamily A member 1, sequence (Q8BLA8 whole entry): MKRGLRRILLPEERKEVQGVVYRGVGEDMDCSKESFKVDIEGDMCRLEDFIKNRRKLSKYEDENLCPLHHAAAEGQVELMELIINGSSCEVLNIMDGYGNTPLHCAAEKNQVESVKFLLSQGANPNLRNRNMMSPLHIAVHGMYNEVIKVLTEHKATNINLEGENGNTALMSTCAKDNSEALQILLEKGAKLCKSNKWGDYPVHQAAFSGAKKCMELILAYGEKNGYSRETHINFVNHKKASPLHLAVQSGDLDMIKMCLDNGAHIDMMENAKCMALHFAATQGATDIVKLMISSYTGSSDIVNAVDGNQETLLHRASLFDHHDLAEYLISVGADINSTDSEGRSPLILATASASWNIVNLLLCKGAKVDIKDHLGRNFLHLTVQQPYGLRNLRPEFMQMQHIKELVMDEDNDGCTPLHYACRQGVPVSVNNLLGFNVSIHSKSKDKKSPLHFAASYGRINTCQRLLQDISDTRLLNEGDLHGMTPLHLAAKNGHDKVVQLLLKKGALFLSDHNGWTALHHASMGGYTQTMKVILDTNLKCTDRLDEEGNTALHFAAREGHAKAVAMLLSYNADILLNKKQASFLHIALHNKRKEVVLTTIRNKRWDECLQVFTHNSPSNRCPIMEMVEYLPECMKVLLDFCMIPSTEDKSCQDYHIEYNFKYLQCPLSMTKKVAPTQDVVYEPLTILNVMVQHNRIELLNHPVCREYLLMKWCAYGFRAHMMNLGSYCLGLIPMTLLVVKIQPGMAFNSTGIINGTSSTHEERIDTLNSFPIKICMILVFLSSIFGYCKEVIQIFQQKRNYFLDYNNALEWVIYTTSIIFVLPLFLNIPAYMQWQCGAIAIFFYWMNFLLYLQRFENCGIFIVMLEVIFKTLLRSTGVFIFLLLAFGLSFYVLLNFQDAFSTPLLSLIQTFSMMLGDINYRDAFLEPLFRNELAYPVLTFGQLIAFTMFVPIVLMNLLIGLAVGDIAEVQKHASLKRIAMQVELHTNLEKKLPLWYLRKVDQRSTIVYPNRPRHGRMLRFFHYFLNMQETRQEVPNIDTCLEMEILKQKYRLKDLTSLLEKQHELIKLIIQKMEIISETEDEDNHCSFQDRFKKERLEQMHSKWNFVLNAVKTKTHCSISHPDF

[8] = test system: Rattus norvegicus; experiment: Antiallodynic activity in spinal nerve ligation-induced neuropathic pain Sprague-Dawley rat model assessed as attenuation of mechanical allodynia at 6.2 to 62.1 mg/kg, po administered with compound for 1 hrs and measured 10 to 14 days after surgery; assay type: functional, organism-based; details: dose 6.2-62.1 mg/kg, time 241-337 hrs
[9] = molecular target: Transient receptor potential cation channel subfamily V member 4 (Homo sapiens, UniProt Q9HBA0); experiment: Antagonist activity at human TRPV4 expressed in HEK293F cells assessed as inhibition of mOsmo-induced TRPV4 channel activation by FLIPR-based Ca2+ assay relative to control; assay type: cell-based; details: concentration not given here
Transient receptor potential cation channel subfamily V member 4, sequence (Q9HBA0 whole entry): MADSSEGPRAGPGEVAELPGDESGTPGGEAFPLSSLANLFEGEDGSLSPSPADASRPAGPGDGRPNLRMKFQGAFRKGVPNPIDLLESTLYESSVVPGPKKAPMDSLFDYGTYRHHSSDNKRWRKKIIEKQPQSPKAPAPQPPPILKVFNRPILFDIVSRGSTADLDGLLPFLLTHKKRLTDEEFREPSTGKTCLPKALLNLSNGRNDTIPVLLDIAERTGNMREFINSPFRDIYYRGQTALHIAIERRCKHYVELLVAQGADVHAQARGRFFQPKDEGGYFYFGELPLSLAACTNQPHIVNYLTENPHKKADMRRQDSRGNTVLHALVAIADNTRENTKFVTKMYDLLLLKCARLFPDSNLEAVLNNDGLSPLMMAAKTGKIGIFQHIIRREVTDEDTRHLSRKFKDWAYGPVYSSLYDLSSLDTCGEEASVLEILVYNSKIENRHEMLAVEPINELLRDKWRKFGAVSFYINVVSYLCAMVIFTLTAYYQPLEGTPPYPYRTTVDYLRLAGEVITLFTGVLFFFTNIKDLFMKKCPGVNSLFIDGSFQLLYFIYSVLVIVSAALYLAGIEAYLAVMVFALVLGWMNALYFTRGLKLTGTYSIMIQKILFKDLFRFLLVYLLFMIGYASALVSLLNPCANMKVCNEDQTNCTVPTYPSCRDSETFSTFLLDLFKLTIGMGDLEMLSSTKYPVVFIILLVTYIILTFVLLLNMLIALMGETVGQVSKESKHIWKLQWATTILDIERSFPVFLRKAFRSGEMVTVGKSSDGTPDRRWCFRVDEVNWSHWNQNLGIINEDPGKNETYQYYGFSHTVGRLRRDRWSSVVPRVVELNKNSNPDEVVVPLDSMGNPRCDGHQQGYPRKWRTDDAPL

[10] = molecular target: Transient receptor potential cation channel subfamily M member 8 (Homo sapiens, UniProt Q7Z2W7); experiment: Antagonist activity at human TRPM8 expressed in HEK293F cells assessed as inhibition of menthol-induced TRPM8 channel activation by FLIPR-based Ca2+ assay relative to control; assay type: cell-based; details: concentration not given here
Transient receptor potential cation channel subfamily M member 8, sequence (Q7Z2W7 whole entry, looked up): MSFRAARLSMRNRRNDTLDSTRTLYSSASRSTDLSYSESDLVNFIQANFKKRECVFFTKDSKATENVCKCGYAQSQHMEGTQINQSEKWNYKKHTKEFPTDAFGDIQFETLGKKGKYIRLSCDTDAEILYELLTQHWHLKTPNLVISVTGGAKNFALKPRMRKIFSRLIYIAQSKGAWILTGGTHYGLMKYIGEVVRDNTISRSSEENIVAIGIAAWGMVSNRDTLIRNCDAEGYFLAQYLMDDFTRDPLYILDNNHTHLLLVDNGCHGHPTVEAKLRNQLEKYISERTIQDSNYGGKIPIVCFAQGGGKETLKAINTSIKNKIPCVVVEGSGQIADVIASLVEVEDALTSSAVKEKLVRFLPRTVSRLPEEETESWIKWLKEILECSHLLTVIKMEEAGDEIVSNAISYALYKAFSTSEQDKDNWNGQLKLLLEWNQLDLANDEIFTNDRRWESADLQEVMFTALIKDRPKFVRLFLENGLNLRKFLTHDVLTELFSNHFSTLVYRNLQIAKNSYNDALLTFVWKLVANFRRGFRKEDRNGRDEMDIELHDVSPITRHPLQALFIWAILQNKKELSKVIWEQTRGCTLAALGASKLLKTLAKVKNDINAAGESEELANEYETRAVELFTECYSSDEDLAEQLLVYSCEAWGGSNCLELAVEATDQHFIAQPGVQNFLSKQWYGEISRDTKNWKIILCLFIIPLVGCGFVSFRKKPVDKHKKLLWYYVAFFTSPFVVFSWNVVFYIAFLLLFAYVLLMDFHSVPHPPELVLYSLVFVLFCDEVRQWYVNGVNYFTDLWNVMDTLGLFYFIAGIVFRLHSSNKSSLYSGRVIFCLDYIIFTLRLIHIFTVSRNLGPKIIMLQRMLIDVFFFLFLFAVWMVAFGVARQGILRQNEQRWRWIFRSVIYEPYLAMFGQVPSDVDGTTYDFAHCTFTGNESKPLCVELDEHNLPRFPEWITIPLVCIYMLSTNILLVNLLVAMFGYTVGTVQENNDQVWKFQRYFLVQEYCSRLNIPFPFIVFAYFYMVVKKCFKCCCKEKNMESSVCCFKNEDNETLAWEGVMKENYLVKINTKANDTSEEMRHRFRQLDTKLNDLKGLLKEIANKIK

[11] = Effect on locomotory activity in Sprague-Dawley rat model of mustard oil-induced nocifensive response at 6.2 to 62.1 mg/kg, po administered for 1 hrs; assay type: toxicity, organism-based; details: in vivo, dose 6.2-62.1 mg/kg
[12] = Half-life in rat at 2 mg/kg, po; assay type: ADME, organism-based; details: in vivo
[13] = molecular target: T2, Transient receptor potential cation channel subfamily V member 3 (Homo sapiens) (UniProt Q8NET8); experiment: Antagonist activity at endogenous TRPV3 in human epithelial cells assessed as inhibition of 2APB-induced TRPV3 channel activation by FLIPR-based Ca2+ assay relative to control; details: Epithelial cell, concentration not given here
T2 sequence (whole entry): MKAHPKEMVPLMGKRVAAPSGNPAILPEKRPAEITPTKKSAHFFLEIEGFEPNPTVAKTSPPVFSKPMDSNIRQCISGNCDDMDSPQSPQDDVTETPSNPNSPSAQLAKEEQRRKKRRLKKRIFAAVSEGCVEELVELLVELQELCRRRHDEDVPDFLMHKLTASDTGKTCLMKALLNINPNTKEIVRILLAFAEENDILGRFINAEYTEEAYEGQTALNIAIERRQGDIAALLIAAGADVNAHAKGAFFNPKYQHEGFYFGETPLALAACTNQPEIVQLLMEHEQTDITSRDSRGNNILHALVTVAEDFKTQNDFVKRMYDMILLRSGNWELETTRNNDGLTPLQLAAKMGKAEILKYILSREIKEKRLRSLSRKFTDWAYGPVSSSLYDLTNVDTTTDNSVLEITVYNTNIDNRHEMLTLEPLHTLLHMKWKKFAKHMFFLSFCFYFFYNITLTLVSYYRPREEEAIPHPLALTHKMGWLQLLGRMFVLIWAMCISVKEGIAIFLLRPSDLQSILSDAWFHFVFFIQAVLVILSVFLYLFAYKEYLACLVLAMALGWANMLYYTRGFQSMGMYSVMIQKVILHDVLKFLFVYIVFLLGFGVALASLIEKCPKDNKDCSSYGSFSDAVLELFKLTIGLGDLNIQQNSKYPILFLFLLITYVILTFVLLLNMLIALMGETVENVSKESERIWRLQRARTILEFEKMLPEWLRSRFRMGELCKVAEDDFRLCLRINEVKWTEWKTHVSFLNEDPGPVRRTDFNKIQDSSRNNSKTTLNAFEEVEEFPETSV

Q: For `CCC(=N\O)/C(C)=C/c1ccc(F)cc1` [A-079], which IC50 [1] is on record?
A: > 100000 nM

Q: What about the inhibition [2] of the same compound?
A: < 20%

Q: And the Activity [3]?
A: Active

Q: And the Activity [4]?
A: inactive

Q: And the “Drug uptake(free)” value [5]?
A: 0.47 µmol/L

Q: What about the Activity [6] of the same compound?
A: Dose-Dependent Effect

Q: And the ED50 [6]?
A: 23.2 mg/kg

Q: And the IC50 [7]?
A: 296 nM

Q: What about the Activity [8] of the same compound?
A: inactive

Q: And the inhibition [9]?
A: < 20%

Q: What about the inhibition [10] of the same compound?
A: < 20%

Q: And the Activity [11]?
A: Non-Toxic

Q: And the half-life [12]?
A: 48.6 min

Q: What about the inhibition [13] of the same compound?
A: < 20%
